Laboratory results reported in patent US6737383B1, “Herbicidal oxadiazolidines” (priority 1999, dated 2004).

Columns and labels:
bedstraw = experiment: Test B pre/postemergence bedstraw; type: in vivo, Galium aparine
Summary of the method: (§1)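 Response is a visual 0-to-10 score relative to untreated plants, where 0 means no effect and 10 means complete control, taken twelve to sixteen days after application. Treatments went onto soil at planting and onto foliage of 1- to 4-leaf plants, using a surfactant-containing non-phytotoxic solvent.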

blackgrass = experiment: Test B pre/postemergence blackgrass; type: in vivo, Alopecurus myosuroides
Summary of the method: as §1

surinam grass = experiment: Test B pre/postemergence surinam grass; type: in vivo, Brachiaria decumbens
Summary of the method: as §1

corn = experiment: Test B pre/postemergence corn; type: in vivo, Zea mays; settings: for Corn plant response rating: scale of 0 to 10 where 0 is no effect and 10 is complete control
Summary of the method: as §1

giant foxtail = experiment: Test B pre/postemergence giant foxtail; type: in vivo, Setaria faberii; settings: for Giant foxtail plant response rating: scale of 0 to 10 where 0 is no effect and 10 is complete control
Summary of the method: as §1

morningglory = experiment: Test B pre/postemergence morningglory; type: in vivo, Ipomoea hederacea; settings: for Morningglory plant response rating: scale of 0 to 10 where 0 is no effect and 10 is complete control
Summary of the method: as §1

pigweed = experiment: Test B pre/postemergence pigweed; type: in vivo, Amaranthus retroflexus; settings: for Redroot pigweed plant response rating: scale of 0 to 10 where 0 is no effect and 10 is complete control
Summary of the method: as §1

rape = experiment: Test B pre/postemergence rape; type: in vivo, Brassica napus; settings: for Rape plant response rating: scale of 0 to 10 where 0 is no effect and 10 is complete control
Summary of the method: as §1

soybean = experiment: Test B pre/postemergence soybean; type: in vivo, Glycine max; settings: for Soybean plant response rating: scale of 0 to 10 where 0 is no effect and 10 is complete control
Summary of the method: as §1

sugar beet = experiment: Test B pre/postemergence sugar beet; type: in vivo, Beta vulgaris; settings: for Sugarbeets plant response rating: scale of 0 to 10 where 0 is no effect and 10 is complete control
Summary of the method: as §1

velvetleaf = experiment: Test B pre/postemergence velvetleaf; type: in vivo, Abutilon theophrasti; settings: for Velvetleaf plant response rating: scale of 0 to 10 where 0 is no effect and 10 is complete control
Summary of the method: as §1

purple nutsedge = experiment: Test B pre/postemergence purple nutsedge; type: in vivo, Cyperus rotundus; settings: for Nutsedge plant response rating: scale of 0 to 10 where 0 is no effect and 10 is complete control
Summary of the method: as §1

rice = experiment: Test B flood test rice; type: in vivo, Oryza sativa; settings: Pre-emergence
Summary of the method: (§2)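 Plants were grown to the 2-leaf stage before treatment with test chemical, then held in a greenhouse for twelve to sixteen days. Injury was visually rated against untreated controls on a 0–10 scale, where 0 is no effect and 10 is complete control.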

smallflower flatsedge = experiment: Test B flood test smallflower flatsedge; type: in vivo, Cyperus difformis; settings: Pre-emergence
Summary of the method: as §2

duck salad = experiment: Test B flood test duck salad; type: in vivo, Heteranthera limosa; settings: Pre-emergence
Summary of the method: as §2

bamyardgrass = experiment: Test B flood test barnyardgrass; type: in vivo, Echinochloa crus-galli; settings: Pre-emergence
Summary of the method: as §2

[1] = Postemergence, Rate 125 g/ha, scale 0 to 10, 0 is no effect, 10 is complete control
[2] = Preemergence, Rate 62 g/ha, scale 0 to 10 (0 no effect, 10 complete control)
[3] = Preemergence, Rate 500 g/ha, scale of 0 to 10 where 0 is no effect and 10 is complete control
[4] = Rate 62 g/ha, Postemergence, scale of 0 to 10 where 0 is no effect and 10 is complete control
[5] = Rate 250 g/ha, Postemergence, scale of 0 to 10 where 0 is no effect and 10 is complete control
[6] = Rate 500 g/ha, Postemergence, scale 0 to 10, 0 no effect, 10 complete control
[7] = Preemergence, Rate 250 g/ha, scale of 0 to 10 where 0 is no effect and 10 is complete control
[8] = Rate 62 g/ha, flood test species, visual evaluation after twelve to sixteen days
[9] = Rate 125 g/ha, flood test species, scale 0 to 10 where 0 is no effect and 10 is complete control
[10] = Rate 250 g/ha, flood-test species, scale 0 to 10, 0 is no effect, 10 is complete control
[11] = Rate 500 g/ha, flood test species, scale 0 to 10 (0 no effect, 10 complete control)

CC(C)N(C(=O)n1oc(=O)n(C2CCCCCC2)c1=O)c1ccccc1 [Compound 341]
10: Giant foxtail plant response rating (giant foxtail; Preemergence, Rate 250 g/ha) | Giant foxtail plant response rating (giant foxtail; Preemergence, Rate 500 g/ha) | Plant response rating, Morningglory (morningglory; [6])
1: Soybean plant response rating (soybean; Rate 62 g/ha, Postemergence) | Plant response rating, S. Flatsedge (0 to 10 scale, 0 is no effect, 10 is complete control) (smallflower flatsedge; [8])
4: Plant response rating, Bedstraw (bedstraw; [5]) | S. Flatsedge plant response rating (smallflower flatsedge; [9])
6: Blackgrass plant response rating (blackgrass; [7]) | Plant response rating, Redroot pigweed (pigweed; [6])
3: Plant response rating, Soybean (soybean; [6]) | Ducksalad plant response rating (duck salad; [11])
0: Plant response rating, Bedstraw (bedstraw; [1]) | Plant response rating, Bedstraw (bedstraw; [2]) | Bedstraw plant response rating (0 to 10 scale) (bedstraw; Preemergence, Rate 125 g/ha) | Bedstraw plant response rating (bedstraw; [4]) | Plant response rating, Blackgrass (blackgrass; [1]) | Plant response rating, Blackgrass (blackgrass; [2]) | Blackgrass plant response rating (blackgrass; [4]) | Plant response rating, B. signalgrass (surinam grass; [1]) | Plant response rating, B. signalgrass (surinam grass; [2]) | B. signalgrass plant response rating (0 to 10 scale, 0 is no effect, 10 is complete control) (surinam grass; Preemergence, Rate 125 g/ha) | B. signalgrass plant response rating (surinam grass; [7]) | B. signalgrass plant response rating (surinam grass; [3]) | B. signalgrass plant response rating (surinam grass; [4]) | Plant response rating, B. signalgrass (surinam grass; [5]) | Plant response rating, Corn (corn; [1]) | Plant response rating, Corn (corn; [2]) | Corn plant response rating (0 to 10 scale) (corn; Preemergence, Rate 125 g/ha) | Corn plant response rating (corn; Preemergence, Rate 250 g/ha) | Corn plant response rating (corn; Preemergence, Rate 500 g/ha) | Corn plant response rating (corn; Rate 62 g/ha, Postemergence) | Plant response rating, Corn (corn; [6]) | Plant response rating, Giant foxtail (giant foxtail; [1]) | Giant foxtail plant response rating (giant foxtail; Rate 62 g/ha, Postemergence) | Plant response rating, Morningglory (morningglory; [2]) | Morningglory plant response rating (0 to 10 scale) (morningglory; Preemergence, Rate 125 g/ha) | Morningglory plant response rating (morningglory; Preemergence, Rate 250 g/ha) | Morningglory plant response rating (morningglory; Preemergence, Rate 500 g/ha) | Plant response rating, Redroot pigweed (pigweed; [1]) | Plant response rating, Redroot pigweed (pigweed; [2]) | Redroot pigweed plant response rating (0 to 10 scale) (pigweed; Preemergence, Rate 125 g/ha) | Redroot pigweed plant response rating (pigweed; Preemergence, Rate 250 g/ha) | Redroot pigweed plant response rating (pigweed; Rate 62 g/ha, Postemergence) | Plant response rating, Rape (rape; [1]) | Plant response rating, Rape (rape; [2]) | Rape plant response rating (0 to 10 scale) (rape; Preemergence, Rate 125 g/ha) | Rape plant response rating (rape; Preemergence, Rate 250 g/ha) | Rape plant response rating (rape; Preemergence, Rate 500 g/ha) | Rape plant response rating (rape; Rate 62 g/ha, Postemergence) | Plant response rating, Soybean (soybean; [2]) | Soybean plant response rating (0 to 10 scale) (soybean; Preemergence, Rate 125 g/ha) | Soybean plant response rating (soybean; Preemergence, Rate 250 g/ha) | Soybean plant response rating (soybean; Preemergence, Rate 500 g/ha) | Plant response rating, Sugarbeets (sugar beet; [1]) | Plant response rating, Sugarbeets (sugar beet; [2]) | Sugarbeets plant response rating (0 to 10 scale) (sugar beet; Preemergence, Rate 125 g/ha) | Sugarbeets plant response rating (sugar beet; Preemergence, Rate 250 g/ha) | Sugarbeets plant response rating (sugar beet; Preemergence, Rate 500 g/ha) | Sugarbeets plant response rating (sugar beet; Rate 62 g/ha, Postemergence) | Plant response rating, Sugarbeets (sugar beet; [6]) | Plant response rating, Velvetleaf (velvetleaf; [1]) | Plant response rating, Velvetleaf (velvetleaf; [2]) | Velvetleaf plant response rating (0 to 10 scale) (velvetleaf; Preemergence, Rate 125 g/ha) | Velvetleaf plant response rating (velvetleaf; Preemergence, Rate 250 g/ha) | Velvetleaf plant response rating (velvetleaf; Rate 62 g/ha, Postemergence) | Plant response rating, Nutsedge (purple nutsedge; [1]) | Plant response rating, Nutsedge (purple nutsedge; [2]) | Nutsedge plant response rating (0 to 10 scale) (purple nutsedge; Preemergence, Rate 125 g/ha) | Nutsedge plant response rating (purple nutsedge; Preemergence, Rate 250 g/ha) | Nutsedge plant response rating (purple nutsedge; Preemergence, Rate 500 g/ha) | Nutsedge plant response rating (purple nutsedge; Rate 62 g/ha, Postemergence) | Plant response rating, Nutsedge (purple nutsedge; [6]) | Plant response rating, Rice (0 to 10 scale, 0 is no effect, 10 is complete control) (rice; [8]) | Rice plant response rating (rice; [9]) | Rice plant response rating (rice; [10]) | Plant response rating, Ducksalad (0 to 10 scale, 0 is no effect, 10 is complete control) (duck salad; [8]) | Ducksalad plant response rating (duck salad; [9]) | Ducksalad plant response rating (duck salad; [10])
7: Blackgrass plant response rating (blackgrass; [3]) | Plant response rating, Morningglory (morningglory; [1]) | Morningglory plant response rating (morningglory; Rate 62 g/ha, Postemergence)
9: Plant response rating, Giant foxtail (giant foxtail; [2]) | Giant foxtail plant response rating (0 to 10 scale) (giant foxtail; Preemergence, Rate 125 g/ha) | S. Flatsedge plant response rating (smallflower flatsedge; [10]) | S. Flatsedge plant response rating (smallflower flatsedge; [11]) | Barnyardgrass plant response rating (bamyardgrass; [10]) | Barnyardgrass plant response rating (bamyardgrass; [11])
2: Bedstraw plant response rating (bedstraw; [3]) | Blackgrass plant response rating (0 to 10 scale) (blackgrass; Preemergence, Rate 125 g/ha) | Plant response rating, Blackgrass (blackgrass; [5]) | Plant response rating, Blackgrass (blackgrass; [6]) | Plant response rating, B. signalgrass (surinam grass; [6]) | Plant response rating, Giant foxtail (giant foxtail; [6]) | Plant response rating, Rape (rape; [6]) | Plant response rating, Soybean (soybean; [1]) | Velvetleaf plant response rating (velvetleaf; Preemergence, Rate 500 g/ha) | Plant response rating, Velvetleaf (velvetleaf; [6]) | Rice plant response rating (rice; [11]) | Plant response rating, Barnyardgrass (0 to 10 scale, 0 is no effect, 10 is complete control) (bamyardgrass; [8])
8: Plant response rating, Bedstraw (bedstraw; [6]) | Redroot pigweed plant response rating (pigweed; Preemergence, Rate 500 g/ha) | Barnyardgrass plant response rating (bamyardgrass; [9])
